Laboratory results reported in patent US7994365B2, “Basic acetophenones as inhibitors of NO-synthases” (Christian-Albrechts-Universitaet Zu Kiel, priority 2006, dated 2011).
Counter-ions that a name gives are not always drawn.

Biological target: T1, bNOS (Homo sapiens, UniProt P29475)
T1 construct: purchased Axxora GmbH
Test: Griess assay: NO-synthase converts L-arginine to L-citrullin and NO, activity measured by nitrite formation
Format: biochemical
Conditions: maximum inhibition reached; recombinant human isoenzyme, 30 min at 37° C., controls without inhibitor = 100%
Experimental: Although the compound is known from the literature Niwa, H., 1957, Tohoku Yakka Daigaku, 4, 69-78), as yet no NOS-inhibiting action has been described.
In both FIGS. 1 and 2 the bNOS activity is measured by means of nitrite formation. Nitrite is the end product of nitrogen monoxide in oxygen-containing, aqueous solution. Control incubations with all the cofactors, but without inhibitor addition, were 100% established. These are mean values +/− standard deviation of three incubations, in each case measured twice.
The incubations of the synthesized substances with the NO-synthases were carried out as follows: […]
Following preparation, the batches were incubated for 20 min (iNOS and eNOS) or 30 min (bNOS) in the shaking water bath at 37° C. […] After incubating for […] at room temperature, the solutions were measured at a wavelength of 543 nm and the indicated non-enzyme-containing sample was used as the blank reading. […] The nitrite can be quantitatively determined by reaction with sulphanilamide and naphthyl ethylene diamine in an acid medium. This leads to an azo dye, which can be measured spectrophotometrically. […] The relative nitrite formations were determined for the control batches containing no inhibitors. […]

T1 sequence (P29475 whole entry): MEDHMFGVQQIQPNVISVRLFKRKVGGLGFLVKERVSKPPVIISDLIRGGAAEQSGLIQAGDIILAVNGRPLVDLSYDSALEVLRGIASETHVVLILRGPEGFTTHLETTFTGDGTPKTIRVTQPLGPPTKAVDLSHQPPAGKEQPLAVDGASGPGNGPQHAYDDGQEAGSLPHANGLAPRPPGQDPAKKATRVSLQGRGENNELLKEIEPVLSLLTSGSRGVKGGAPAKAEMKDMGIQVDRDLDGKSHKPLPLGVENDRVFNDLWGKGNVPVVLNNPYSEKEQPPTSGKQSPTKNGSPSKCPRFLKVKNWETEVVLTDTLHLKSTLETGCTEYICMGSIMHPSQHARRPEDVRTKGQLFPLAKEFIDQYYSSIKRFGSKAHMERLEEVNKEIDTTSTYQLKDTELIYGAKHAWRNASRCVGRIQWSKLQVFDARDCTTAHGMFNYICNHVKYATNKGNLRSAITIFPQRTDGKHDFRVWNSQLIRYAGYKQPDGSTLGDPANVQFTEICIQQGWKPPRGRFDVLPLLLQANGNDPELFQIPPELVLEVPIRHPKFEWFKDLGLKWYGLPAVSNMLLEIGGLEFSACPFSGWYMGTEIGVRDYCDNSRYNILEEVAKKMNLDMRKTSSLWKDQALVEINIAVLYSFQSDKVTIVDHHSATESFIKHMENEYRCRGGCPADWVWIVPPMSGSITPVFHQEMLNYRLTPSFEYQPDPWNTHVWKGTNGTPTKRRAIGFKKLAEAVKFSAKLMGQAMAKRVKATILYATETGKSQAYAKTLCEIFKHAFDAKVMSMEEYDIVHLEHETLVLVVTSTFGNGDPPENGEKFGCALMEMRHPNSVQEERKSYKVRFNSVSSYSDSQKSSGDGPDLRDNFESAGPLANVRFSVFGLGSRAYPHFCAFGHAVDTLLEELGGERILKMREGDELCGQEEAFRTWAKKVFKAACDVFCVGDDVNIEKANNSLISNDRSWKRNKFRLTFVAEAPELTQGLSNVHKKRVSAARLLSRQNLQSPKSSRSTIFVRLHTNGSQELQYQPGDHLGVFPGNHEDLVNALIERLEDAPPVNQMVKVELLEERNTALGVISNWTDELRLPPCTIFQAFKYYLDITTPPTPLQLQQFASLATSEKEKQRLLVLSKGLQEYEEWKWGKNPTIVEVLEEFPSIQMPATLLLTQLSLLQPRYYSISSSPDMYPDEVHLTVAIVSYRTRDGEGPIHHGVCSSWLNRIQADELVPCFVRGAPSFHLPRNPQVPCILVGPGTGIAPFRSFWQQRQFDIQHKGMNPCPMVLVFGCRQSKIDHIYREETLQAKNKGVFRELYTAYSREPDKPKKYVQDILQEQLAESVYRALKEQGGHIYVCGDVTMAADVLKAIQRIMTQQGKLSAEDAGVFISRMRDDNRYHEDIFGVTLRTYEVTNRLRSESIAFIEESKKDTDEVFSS

CN(C)CCC(=O)c1ccc(-c2ccc(Br)cc2)cc1 [4′-(4-bromophenyl)-3-dimethylaminopropiophenone hydrochloride]
concentration-dependent inhibition of bNOS: up to 88%

CN(C)CCCC(=O)c1ccc(-c2ccc(Br)cc2)cc1 [4′-(4-bromophenyl)-4-dimethylaminobutyrophenone hydrochloride]
concentration-dependent inhibition of bNOS: up to 99%
